The results in this text go back to patent US12208088B2 (Genentech, Inc., priority 2018, dated 2025).

The assay addresses HPK1 (Homo sapiens (Human), UniProt Q92918). Nature of the assay: HPK1 Lantha binding assay ("Lanth"). The note with it: binding assays; Morrison Ki fit. The protocol: Example B2: HPK1 Lantha Binding Assay (“Lanth”)
Procedure: I. Compound Dilution:
The compounds to be tested were diluted by preparing 12.5 uL/well of 5 mM compound (100×) in columns 2 and 13 and 10 ul/well of DMSO in columns 3-12, 14-23, and wells A1-H1 and I24-P24 of the compound plate using a Bravo liquid handling platform. For the reference compound, the top concentration was 1 mM. To the plate was added 10 ul 2 mM staurosporine in wells J1-P1 and A24-H24. A 11 point 5-fold compound serial dilution was performed using the Bravo liquid handling platform. From the plate were transferred 2.5 ul of the solutions from column 2 and column 13 to the 10 ul of DMSO in columns 3 and 14 & so on. The compound plate was centrifuged at 2500 rpm for 1 min. From the compound plate was transferred 80 nl of the compounds into an assay plate using the Echo liquid handler system. One compound plate makes two assay plates. Each assay plate is sealed and stored in an N2 cabinet.
The following assay concentrations and times were used: 2 nM HPK1, 2 nM Eu-Anti-GST Ab, and 15 nM Tracer222, with 60 min incubation time.
III. HPK Lantha Binding Assay:
For the binding assay, 4 ul 2×HPK1 and Eu-anti-GST antibody were added to each well of the assay plate using a Multidrop reagent dispenser. The solutions were incubated in a 23 C incubator for 1 h. To each well of the assay plate was added 4 ul 2× Tracer-222 using a Multidrop reagent dispenser. The solutions were again incubated in a 23 C incubator for 1 h. The results of the assay were read using an Envision plate reader with the following parameters: TR_FRET, 340 ex/615 and 665em; 100 usec Delay; and 200 usec integration.
Compound Ki was analyzed using Morrison ki fit model in XL-fit • a. fit=(1−((((E+x)+(Ki*(1+(S/Kd))))−(((((E+x)+(Ki*(1+(S/Kd))))^2)−((4*E)*x))^0.5))/(2*E))) • res=(y−fit) • b. Parameters: • E=enzyme concentration • S=Tracer222 concentration, Kd=Tracer222 Kd • All measurements reported using the same units (uM)
Exemplary compounds were tested in the binding assays.

HPK1, sequence (Q92918 1-346 limits assumed): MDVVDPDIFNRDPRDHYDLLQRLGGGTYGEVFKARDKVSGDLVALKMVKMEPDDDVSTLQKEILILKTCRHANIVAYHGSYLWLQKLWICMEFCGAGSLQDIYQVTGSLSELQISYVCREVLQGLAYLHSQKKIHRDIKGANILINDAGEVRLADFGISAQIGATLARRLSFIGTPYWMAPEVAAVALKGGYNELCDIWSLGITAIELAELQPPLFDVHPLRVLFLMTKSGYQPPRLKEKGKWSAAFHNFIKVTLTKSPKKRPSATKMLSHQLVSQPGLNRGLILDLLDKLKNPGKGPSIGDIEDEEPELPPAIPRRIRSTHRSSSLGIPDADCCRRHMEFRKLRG

For orientation: Ki means the dissociation constant of the complex between target and ligand, obtained from inhibition or displacement. `Cc1cnn([C@H]2CC[C@@]3(CNc4ncc(-c5ccc(N)c(C(=O)N(C)C)c5F)c(Cl)c43)C2)c1` (relative stereo) [Compound 125a, 6-Amino-3-((1R,3S)-4′-chloro-3-(4-methyl-1H-pyrazol-1-yl)-1′,2′-dihydrospiro[cyclopentane-1,3′-pyrrolo[2,3-b]pyridin]-5′-yl)-2-fluoro-N,N-dimethylbenzamide] returned a Ki of 3.56 nM.

`CN(C)C(=O)c1c(N)ccc(-c2cnc3c(c2Cl)[C@]2(CC[C@H](n4cccn4)C2)CN3)c1F` (relative stereo) [Compound 126a, 6-Amino-3-((1R,3S)-4′-chloro-3-(1H-pyrazol-1-yl)-1′,2′-dihydrospiro[cyclopentane-1,3′-pyrrolo[2,3-b]pyridin]-5′-yl)-2-fluoro-N,N-dimethylbenzamide] came in with a Ki of 18.5 nM. Compared with the last compound, the Ki is about 5.2-fold higher. Regarding `CN(C)C(=O)c1c(N)ccc(-c2cnc3c(c2Cl)[C@]2(CC[C@H](CN)C2)CN3)c1F` (relative stereo) [Compound 127a, 6-Amino-3-((1R,3S)-3-(aminomethyl)-4′-chloro-1′,2′-dihydrospiro[cyclopentane-1,3′-pyrrolo[2,3-b]pyridin]-5′-yl)-2-fluoro-N,N-dimethylbenzamide], the affinity corresponds to a Ki of 165 nM.

As to `CN(C)C(=O)c1c(N)ccc(-c2cnc3c(c2Cl)[C@]2(CC[C@](C)(C(N)=O)C2)CN3)c1F` (relative stereo) [Compound 132a, (1R,3S)-5′-(4-Amino-3-(dimethylcarbamoyl)-2-fluorophenyl)-4′-chloro-3-methyl-1′,2′-dihydrospiro[cyclopentane-1,3′-pyrrolo[2,3-b]pyridine]-3-carboxamide], the affinity, expressed as Ki, was 2.08 nM. To `CN(C)C(=O)c1c(N)ccc(-c2cnc3c(c2Cl)[C@]2(CC[C@H](n4ccc(N)n4)C2)CN3)c1F` (relative stereo) [Compound 133a, 6-Amino-3-((1R,3S)-3-(3-amino-1H-pyrazol-1-yl)-4′-chloro-1′,2′-dihydrospiro[cyclopentane-1,3′-pyrrolo[2,3-b]pyridin]-5′-yl)-2-fluoro-N,N-dimethylbenzamide] belongs 34 nM; to `CN(C)C(=O)c1c(N)ccc(-c2cnc3c(c2Cl)[C@]2(CC[C@H](n4nccc4N)C2)CN3)c1F` (relative stereo) [Compound 134a, 6-Amino-3-((1R,3S)-3-(5-amino-1H-pyrazol-1-yl)-4′-chloro-1′,2′-dihydrospiro[cyclopentane-1,3′-pyrrolo[2,3-b]pyridin]-5′-yl)-2-fluoro-N,N-dimethylbenzamide], 16.1 nM. For `CN(C)C(=O)c1c(N)ccc(-c2cnc3c(c2Cl)[C@]2(CC[C@H](CC(N)=O)C2)CN3)c1F` (relative stereo) [Compound 135a, 6-Amino-3-((1R,3S)-3-(2-amino-2-oxoethyl)-4′-chloro-1′,2′-dihydrospiro[cyclopentane-1,3′-pyrrolo[2,3-b]pyridin]-5′-yl)-2-fluoro-N,N-dimethylbenzamide] the value was 7.16 nM; for `CC[C@H]1C[C@@]12CNc1ncc(-c3ccc(N)c(C(=O)N(C)C)c3F)c(Cl)c12` (relative stereo) [Compound 150a, 6-Amino-3-((1R,2S)-4′-chloro-2-ethyl-1′,2′-dihydrospiro[cyclopropane-1,3′-pyrrolo[2,3-b]pyridin]-5′-yl)-2-fluoro-N,N-dimethylbenzamide], 3.3 nM. `CC[C@@H]1C[C@@]12CNc1ncc(-c3ccc(N)c(C(=O)N(C)C)c3F)c(Cl)c12` (relative stereo) [Compound 150c, 6-Amino-3-((1R,2R)-4′-chloro-2-ethyl-1′,2′-dihydrospiro[cyclopropane-1,3′-pyrrolo[2,3-b]pyridin]-5′-yl)-2-fluoro-N,N-dimethylbenzamide] gave a Ki of 2.51 nM. The Ki values of the last two compounds are within 1.5-fold of each other. For `CN(C)C(=O)c1c(N)ccc(-c2cnc3c(c2Cl)[C@]2(CC[C@@](C)(C#N)C2)CN3)c1F` (relative stereo) [Compound 151a, 6-Amino-3-((1R,3R)-4′-chloro-3-cyano-3-methyl-1′,2′-dihydrospiro[cyclopentane-1,3′-pyrrolo[2,3-b]pyridin]-5′-yl)-2-fluoro-N,N-dimethylbenzamide] the value was 42 nM; for `CC[C@]1(C#N)CC[C@@]2(CNc3ncc(-c4ccc(N)c(C(=O)N(C)C)c4F)c(Cl)c32)C1` (relative stereo) [Compound 152a, 6-Amino-3-((1R,3S)-4′-chloro-3-cyano-3-ethyl-1′,2′-dihydrospiro[cyclopentane-1,3′-pyrrolo[2,3-b]pyridin]-5′-yl)-2-fluoro-N,N-dimethylbenzamide], 4.35 nM.

In turn, `CC[C@]1(C(N)=O)CC[C@@]2(CNc3ncc(-c4ccc(N)c(C(=O)N(C)C)c4F)c(Cl)c32)C1` (relative stereo) [Compound 153a, (1R,3S)-5′-(4-Amino-3-(dimethylcarbamoyl)-2-fluorophenyl)-4′-chloro-3-ethyl-1′,2′-dihydrospiro[cyclopentane-1,3′-pyrrolo[2,3-b]pyridine]-3-carboxamide] gave a Ki of 7.16 nM. Compared with the last compound, the Ki is about 1.6-fold higher.

Compound `Cc1noc([C@@]2(C)CC[C@@]3(CNc4ncc(-c5ccc(N)c(C(=O)N(C)C)c5F)c(Cl)c43)C2)n1` (relative stereo) [Compound 156a, 6-Amino-3-((1R,3S)-4′-chloro-3-methyl-3-(3-methyl-1,2,4-oxadiazol-5-yl)-1′,2′-dihydrospiro[cyclopentane-1,3′-pyrrolo[2,3-b]pyridin]-5′-yl)-2-fluoro-N,N-dimethylbenzamide] came in with a Ki of 2.63 nM. Compared with the last compound, the Ki is about 2.7-fold lower. For `Cc1nc(N)nn1[C@H]1CC[C@@]2(CNc3ncc(-c4ccc(N)c(C(=O)N(C)C)c4F)c(Cl)c32)C1` (relative stereo) [Compound 157a, 6-Amino-3-((1R,3S)-3-(3-amino-5-methyl-1H-1,2,4-triazol-1-yl)-4′-chloro-1′,2′-dihydrospiro[cyclopentane-1,3′-pyrrolo[2,3-b]pyridin]-5′-yl)-2-fluoro-N,N-dimethylbenzamide] the value was 109 nM.

For the compound `Cc1nc(N)n([C@H]2CC[C@@]3(CNc4ncc(-c5ccc(N)c(C(=O)N(C)C)c5F)c(Cl)c43)C2)n1` (relative stereo) [Compound 158a, 6-Amino-3-((1R,3S)-3-(5-amino-3-methyl-1H-1,2,4-triazol-1-yl)-4′-chloro-1′,2′-dihydrospiro[cyclopentane-1,3′-pyrrolo[2,3-b]pyridin]-5′-yl)-2-fluoro-N,N-dimethylbenzamide], the Ki is 132 nM. This Ki and that of the compound before are within 1.5-fold of each other.

`Cc1ccn([C@H]2CC[C@@]3(CNc4ncc(-c5ccc(N)c(C(=O)N(C)C)c5F)c(Cl)c43)C2)n1` (relative stereo) [Compound 159a, 6-Amino-3-((1R,3S)-4′-chloro-3-(3-methyl-1H-pyrazol-1-yl)-1′,2′-dihydrospiro[cyclopentane-1,3′-pyrrolo[2,3-b]pyridin]-5′-yl)-2-fluoro-N,N-dimethylbenzamide] returned an inhibition constant (Ki) of 32.2 nM. To `Cc1cc(C#N)n([C@H]2CC[C@@]3(CNc4ncc(-c5ccc(N)c(C(=O)N(C)C)c5F)c(Cl)c43)C2)n1` (relative stereo) [Compound 161a] belongs 51 nM; to `Cc1cc(C)n([C@H]2CC[C@@]3(CNc4ncc(-c5ccc(N)c(C(=O)N(C)C)c5F)c(Cl)c43)C2)n1` (relative stereo) [Compound 163a, 6-Amino-3-((1R,3S)-4′-chloro-3-(3,5-dimethyl-1H-pyrazol-1-yl)-1′,2′-dihydrospiro[cyclopentane-1,3′-pyrrolo[2,3-b]pyridin]-5′-yl)-2-fluoro-N,N-dimethylbenzamide], 69.3 nM; to `CN(C)C(=O)c1c(N)ccc(-c2cnc3c(c2Cl)[C@]2(CC[C@H](n4cc(C(F)(F)F)cn4)C2)CN3)c1F` (relative stereo) [Compound 164a, 6-Amino-3-((1R,3S)-4′-chloro-3-(4-(trifluoromethyl)-1H-pyrazol-1-yl)-1′,2′-dihydrospiro[cyclopentane-1,3′-pyrrolo[2,3-b]pyridin]-5′-yl)-2-fluoro-N,N-dimethylbenzamide], 6.65 nM. To `COc1c(-c2ccc(N)c(C(=O)N(C)C)c2F)cnc2c1[C@@]1(CN2)C[C@@H]1C` (relative stereo) [Compound 165a, 6-Amino-2-fluoro-3-((1R,2S)-4′-methoxy-2-methyl-1′,2′-dihydrospiro[cyclopropane-1,3′-pyrrolo[2,3-b]pyridin]-5′-yl)-N,N-dimethylbenzamide] belongs 6.41 nM. For `Cc1nccn1[C@H]1CC[C@@]2(CNc3ncc(-c4ccc(N)c(C(=O)N(C)C)c4F)c(Cl)c32)C1` (relative stereo) [Compound 167a, 6-Amino-3-((1R,3S)-4′-chloro-3-(2-methyl-1H-imidazol-1-yl)-1′,2′-dihydrospiro[cyclopentane-1,3′-pyrrolo[2,3-b]pyridin]-5′-yl)-2-fluoro-N,N-dimethylbenzamide] the value was 163 nM.
